Target: T1, AMPK (A1/B2/G1) (Homo sapiens, UniProt Q13131)
T1 construct: purchased Thermo Fisher Scientific (Life Technologies) SelectScreen
Test: SelectScreen LanthaScreen
Type: binding
Conditions: read-out: % displacement
How it was run: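 SelectScreen broad panel; activity (Z'LYTE, Adapta) plus binding formats. ATP: Km app for CSF1R Z'LYTE; 10 for CAMK1 Adapta. Readout = % per kinase.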

T1 sequence (Q13131 whole entry): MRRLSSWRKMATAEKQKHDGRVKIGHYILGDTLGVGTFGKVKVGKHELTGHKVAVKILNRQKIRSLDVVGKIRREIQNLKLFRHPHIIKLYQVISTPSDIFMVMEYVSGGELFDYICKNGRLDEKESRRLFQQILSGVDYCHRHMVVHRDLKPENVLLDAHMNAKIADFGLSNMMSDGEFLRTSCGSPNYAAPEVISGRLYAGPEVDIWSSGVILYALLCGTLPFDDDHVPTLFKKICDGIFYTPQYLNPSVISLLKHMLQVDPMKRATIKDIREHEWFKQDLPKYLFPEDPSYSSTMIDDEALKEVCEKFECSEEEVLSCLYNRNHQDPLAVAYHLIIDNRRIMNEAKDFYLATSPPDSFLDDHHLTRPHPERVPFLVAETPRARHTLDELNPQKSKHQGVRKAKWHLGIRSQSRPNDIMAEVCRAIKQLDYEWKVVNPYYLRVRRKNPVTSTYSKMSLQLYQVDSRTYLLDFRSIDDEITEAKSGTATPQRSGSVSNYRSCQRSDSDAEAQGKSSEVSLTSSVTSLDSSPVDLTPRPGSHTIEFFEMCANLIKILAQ
T1 sequence (O43741 whole entry partner): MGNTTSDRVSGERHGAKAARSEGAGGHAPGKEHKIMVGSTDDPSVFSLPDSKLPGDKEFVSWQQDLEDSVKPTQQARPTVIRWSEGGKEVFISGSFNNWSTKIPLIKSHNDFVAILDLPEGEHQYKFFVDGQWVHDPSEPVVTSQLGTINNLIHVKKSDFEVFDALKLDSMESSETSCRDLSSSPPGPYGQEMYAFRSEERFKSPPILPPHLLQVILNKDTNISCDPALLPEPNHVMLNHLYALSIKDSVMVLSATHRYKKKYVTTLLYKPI
T1 sequence (P54619 whole entry partner): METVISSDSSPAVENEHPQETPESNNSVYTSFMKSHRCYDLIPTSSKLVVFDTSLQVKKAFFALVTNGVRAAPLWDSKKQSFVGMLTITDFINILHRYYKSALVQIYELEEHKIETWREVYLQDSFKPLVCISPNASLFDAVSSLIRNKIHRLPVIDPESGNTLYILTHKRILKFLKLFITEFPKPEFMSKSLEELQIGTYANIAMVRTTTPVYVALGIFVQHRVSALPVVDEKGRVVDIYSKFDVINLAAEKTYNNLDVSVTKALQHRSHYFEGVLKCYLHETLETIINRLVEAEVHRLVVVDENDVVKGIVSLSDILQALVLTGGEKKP

Compound: CN(C(=O)CN1CCOCC1)c1ccc2sc3c(-c4cccc5c(=O)cc(N6CC7CCC(C6)O7)oc45)cccc3c2c1 [NU5455]
- inhibition at 1 µM: 0.9%
